How the values were obtained:
LPLD = assay: Substrate specificity of purified LPLD or recombinant LPLD (Table 1); assay type: biochemical
Excerpt: The thus-obtained purified LPLD or recombinant LPLD has a substrate specificity as shown in, for example, Table 1.

[1] = target: T1, purified LPLD (bovine lysophospholipase D) (Bos taurus, UniProt A1A4K5); assay: LPLD activity assay using purified LPLD at various reaction pHs (Example 12); assay type: biochemical; conditions: purified LPLD of Example 9, 37° C., 405 nm (FIG. 5)
T1 construct: The starting material, FCS, and respective fractions obtained in the above-mentioned (1)-(7) were assayed for lysophospholipase D activity; from tissue; host or cells: fetal calf serum (FCS), chromatographic purification
Description: (2) Preparation of Reagents
Reagent C: 1-myristoyl-phosphatidyl-p-nitrophenol was dissolved in reagent B to correspond to 10 mmol/L and used as reagent C.
For assay, biochemical automatic analyzer (Toshiba Corporation: TBA-80FR NEO) was used. The purified LPLD (8 μL) obtained in Example 9 and reagent A (240 μL) were pre-warmed at 37° C. for about 15 min, and after addition of reagent C (80 μL), the absorbance at dominant wavelength 405 nm and sub wavelength of 505 nm was measured with lapse of time for about 15 min.

[2] = target: T2, LPLD in control serum (CONSERA, Lipid Serum II) (Homo sapiens, UniProt Q13822); assay: LPLD activity assay at various reaction pHs, control sera (Example 5); assay type: biochemical; conditions: reagent B pH 7.6-8.6, 37° C. (FIG. 1)
T2 construct: Two kinds of commercially available control serum; purchased Nissui Pharmaceutical Co. (CONSERA); Eiken Chemical Co., Ltd. (Lipid Serum II); host or cells: commercial control serum
Excerpt: (1) Preparation of Reagent

human serum albumin = human serum albumin (Homo sapiens, UniProt P02768); conditions: 5% human serum albumin, reagent B pH 7.6-8.6, 37° C. (FIG. 1)
human serum albumin, sequence (P02768 25-609): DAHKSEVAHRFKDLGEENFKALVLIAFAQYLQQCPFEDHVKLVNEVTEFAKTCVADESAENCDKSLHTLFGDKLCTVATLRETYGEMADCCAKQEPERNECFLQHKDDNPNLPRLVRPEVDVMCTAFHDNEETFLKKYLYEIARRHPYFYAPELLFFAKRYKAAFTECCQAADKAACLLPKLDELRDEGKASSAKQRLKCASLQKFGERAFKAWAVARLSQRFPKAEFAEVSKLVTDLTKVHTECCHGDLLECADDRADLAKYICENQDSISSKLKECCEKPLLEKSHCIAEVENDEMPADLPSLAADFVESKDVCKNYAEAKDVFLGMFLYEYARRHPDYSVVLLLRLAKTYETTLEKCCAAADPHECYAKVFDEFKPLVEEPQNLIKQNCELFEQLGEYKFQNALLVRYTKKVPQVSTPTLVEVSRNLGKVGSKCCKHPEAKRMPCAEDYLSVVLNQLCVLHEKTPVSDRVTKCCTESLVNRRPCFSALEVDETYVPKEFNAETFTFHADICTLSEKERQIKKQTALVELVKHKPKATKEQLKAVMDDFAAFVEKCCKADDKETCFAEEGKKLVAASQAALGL
Description: Reagent A: N-(2-hydroxyethyl)piperazine-N′-3-propanesulfonic acid (200 mmol/L), Triton X-100 (0.02%)
Reagent B: reagent A was separated and adjusted to pH 7.6, 7.8, 8.0, 8.2, 8.4 and 8.6, diluted 2-fold to give reagent B having various pHs.
citric acid monohydrate (10 mmol/L), Triton X-100 (0.01%), 1-hydroxy-2-linoleoyl-phosphatidyl-p-nitrophenol (Example 3; 10 mmol/L) prepared in the above-mentioned Example.
Two kinds of commercially available control serum, respective test sample 1 (CONSERA: Nissui Pharmaceutical Co.) and test sample 2 (Lipid Serum II: Eiken Chemical Co., Ltd.), and 5% human serum albumin (fatty acid free: Sigma) solution for determination of the activity of albumin fraction in the serum, were used.
Each sample (10 μL) and reagent B (150 μL) were dispensed to a microplate and the plate was incubated at 37° C. for about 5 min. Thereto was added reagent C (50 μL) and the absorbance at a dominant wavelength of 405 nm and sub wavelength of 540 nm was measured with the lapse of time. The LPLD activity was determined based on changes in absorbance per minute that depend on p-nitrophenol released by the action of LPLD. The activity is expressed by the amount of p-nitrophenol released in one minute per 1 mL of the reaction mixture.

LPLD in human serum = LPLD in human serum (Homo sapiens, UniProt Q13822); assay: LPLD activity assay with chromogenic substrates, human serum sample (Example 6); conditions: pH 8.0, 37° C., p-nitrophenol release at 405 nm, compared with 1-acyl-2-hydroxy substrates B and D (FIG. 2-1)
Description: 2-[4-(2-hydroxyethyl)-1-piperazinyl]ethanesulfonic acid (100 mmol/L), Triton X-100 (0.01%)
Using human serum as a sample, 5% human serum albumin (fatty acid free: Sigma) solution was used for determining the activity in albumin fraction in the serum, and a 5 U/mL solution of Streptomyces-derived PLD (product abbreviation PLDP: Asahi Chemical Industry Co., Ltd.) was used for determining the reactivity with phospholipase D (PLD).
Each sample (10 μL) and reagent A (150 μL) were dispensed to a microplate and the plate was incubated at 37° C. for about 5 min. Thereto was added reagent C (50 μL) and the absorbance at a dominant wavelength of 405 nm and sub wavelength of 540 nm was measured with the lapse of time. The LPLD activity was determined based on changes in absorbance per minute that depend on p-nitrophenol released by the action of LPLD. The activity is expressed by the amount of p-nitrophenol released in one minute per 1 mL of the reaction mixture.

Compound	Reaction product (LPLD)	other results
1-alkenyl-2-hydroxy-glycerophosphocholine	1-alkenyl-2-hydroxy-glycero-3-	
CCCCCCCCCCCCCC(=O)OCC(O)COP(=O)(O)Oc1ccc([N+](=O)[O-])cc1 (centres unmarked) [1-myristoyl-phosphatidyl-p-nitrophenol]		LPLD activity as a function of reaction pH [1]: stronger activity was found when pH was on the alkaline side
CCCCCCCCCCCCC/C=C/[C@@H](O)[C@@H](N)COP(=O)([O-])OCC[N+](C)(C)C [lysosphingomyelin]	Sphingosine-1-phosphate,	
CCCCC/C=C\C/C=C\CCCCCCCC(=O)OC(CO)COP(=O)(O)Oc1ccc([N+](=O)[O-])cc1 (centres unmarked) [substrate A]		LPLD activity as a function of reaction pH [2]: potent when pH is on the alkaline side; activity in a human serum albumin fraction as a function of reaction pH (human serum albumin): also increases; response to human serum (LPLD in human serum): higher
CCCCCCCC/C=C\CCCCCCCC(=O)OC(CO)COP(=O)(O)Oc1ccc([N+](=O)[O-])cc1 (centres unmarked) [substrate C]		response to human serum (LPLD in human serum): higher
lysophosphatidylcholine	lysophosphatidic acid, choline	
lysophosphatidylethanolamine	lysophosphatidic acid,	
lysophosphatidylinositol	lysophosphatidic acid,	
lysophosphatidylserine	lysophosphatidic acid, serine	

From patent US20040053893A1, “Method of assaying iysophospholipase d activity” (priority 2000, published 2004)
